Bounds are passed on as bounds.

This assay deals with T1, recombinant GSK3β enzyme (human GSK3β) (Homo sapiens, UniProt P49841).
T1 construct: FLAG (N); made in house; host or cells: Sf-21 insect cells, recombinant baculovirus (pFASTBAC1 / BAC-TO-BAC)
T1 sequence (P49841 whole entry): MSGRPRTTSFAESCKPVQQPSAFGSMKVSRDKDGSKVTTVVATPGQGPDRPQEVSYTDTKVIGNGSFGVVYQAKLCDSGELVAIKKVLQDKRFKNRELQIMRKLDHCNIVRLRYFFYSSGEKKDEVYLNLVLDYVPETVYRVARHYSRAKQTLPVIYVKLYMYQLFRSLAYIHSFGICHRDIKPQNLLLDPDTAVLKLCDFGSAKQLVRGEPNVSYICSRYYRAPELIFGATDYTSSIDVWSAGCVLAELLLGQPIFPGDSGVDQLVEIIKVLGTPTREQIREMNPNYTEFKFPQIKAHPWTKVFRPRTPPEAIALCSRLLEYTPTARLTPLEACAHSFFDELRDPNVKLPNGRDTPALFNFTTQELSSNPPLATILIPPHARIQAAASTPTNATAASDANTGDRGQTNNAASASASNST
Nature of the assay: Measurement of GSK3β inhibitory activity. The format is biochemical. The conditions noted are these: glycogen synthase peptide substrate, Kinase Glo luminescence, read-out: IC50 (concentration of test compound needed for 50% inhibition of luminescent intensity), GSK3β inhibitory activity. An excerpt: Human GSK3β gene was cloned by a PCR method using a primer set:
prepared using human brain cDNA (Clontech; trade name: QUICK-Clone cDNA) as a template and in reference to the base sequence of GSK3β gene registered in GenBank under Accession Number NM_002093.
PCR was done according to the protocol attached to KOD plus DNA polymerase (Toyo Boseki Kabushiki Kaisha). The obtained PCR product was electrophoresed on agarose gel (1%), and 1.2 kb of DNA fragment including GSK3β gene was collected from the gel and then digested with restriction enzymes EcoR I and Sal I. The restriction enzyme-treated DNA was electrophoresed on agarose gel (1%). The obtained DNA fragment was collected, and ligated to the plasmid pFASTBAC1 (Invitrogen), which had been digested with restriction enzyme EcoR I and Sal I, to produce expression plasmid pFB-GSK3B. The base sequence of insertion fragment was confirmed to find that it corresponded to the objective sequence. In addition, virus stock BAC-GSK3B of recombinant Baculovirus was prepared using BAC-TO-BAC Baculovirus Expression System (Invitrogen).
Sf-21 cells (Invitrogen) were seeded on Sf-900 II SFM medium (Invitrogen)(150 ml) containing 10% fetal calf serum at 1×10^6 cells/ml, and cultured at 27° C. for 24 hr. The virus stock […] obtained above of recombinant Baculovirus was added by 150 μl to the obtained culture medium, and the cells were cultured for another 60 hr. The culture medium was centrifuged (3000 rpm, 10 min) to separate the cells, and the cells were washed once with PBS. The cells were suspended in 10 ml of cell lysis buffer (25 mM HEPES (pH 7.5), 1% Triton X, 130 mM sodium chloride, 1 mM EDTA, 1 mM Dithiothreitol, 25 mM β-glycerophosphate, Protease inhibitor Complete (Boehringer), 1 mM Sodium orthovanadate), treated 4 times using a homogenizer (POLYTRON) at 20000 rpm for 30 sec to disrupt the cells. The disrupted solution of cells was centrifuged (40000 rpm, 45 min.), and GSK3β was purified from the obtained supernatant using Anti-FLAG M2 Affinity Gel (Sigma Ltd.).
10 μl of ATP solution (2.5 μM ATP) was added to the obtained mixture, and the mixture was reacted at room temperature for 30 min. Kinase Glo Reagent (Promega) (50 μl) was added to the reaction solution to stop the reaction. After reaction at room temperature for 10 min, the luminescent intensity was measured using ARVO multilabel counter (PerkinElmer Life Sciences). The concentrations of the test compounds needed for 50% inhibition of luminescent intensity (IC50 value) were calculated by PRISM 3.0 (GraphPad Software).
For the molecule `O=C(CC1CCCC1)Nc1c[nH]nc1C(=O)Nc1ccccc1` [compound 081], the IC50 was determined as 106 nM.

`O=C(Nc1c[nH]nc1C(=O)NCCc1cccnc1)c1ccccn1` [Example 352, N-(3-(((2-pyridin-3-ylethyl)amino)carbonyl)-1H-pyrazol-4-yl)pyridine-2-carboxamide]: the IC50 was under 100 nM.

Consider `CC(C)NC(=O)c1n[nH]cc1NC(=O)c1ccccn1` [Example 345, N-(3-((isopropylamino)carbonyl)-1H-pyrazol-4-yl)pyridine-2-carboxamide], for which the IC50 is under 100 nM.

As for `N#CCCNC(=O)c1n[nH]cc1NC(=O)C1CCCC1` [Example 411, N-(2-cyanoethyl)-4-((cyclopentylcarbonyl)amino)-1H-pyrazole-3-carboxamide], the IC50 is under 100 nM.

For `COc1ccccc1CC(=O)Nc1c[nH]nc1C(=O)NC(C)C` [compound 025], the IC50 was found to be 245 nM.

As to `Cc1ccc(C(=O)Nc2c[nH]nc2C(=O)NC2CCCC2)cn1` [Example 364, N-(3-((cyclopentylamino)carbonyl)-1H-pyrazol-4-yl)-6-methylnicotinamide], the IC50 is under 100 nM.

On to `Cc1[nH]nc(C(=O)NC2CCCC2)c1NC(=O)c1ccccc1` [Example 378, 4-(benzoylylamino)-N-cyclopentyl-5-methyl-1H-pyrazole-3-carboxamide], for which the IC50 is 1000 nM.

As for `COc1ccc(C(=O)Nc2c[nH]nc2C(=O)NCCc2ccccc2)cc1` [Example 133, 4-[(4-methoxybenoyl)amino]-N-(2-phenylethyl)-1H-pyrazole-3-carboxamide], the IC50 was under 100 nM.

Consider `O=C(Nc1c[nH]nc1C(=O)NCCc1ccccc1)c1ccc(OC(F)(F)F)cc1` [Example 138, N-(2-phenylethyl)-4-{[4-(trifluoromethoxy)-benzoyl]amino}-1H-pyrazole-3-carboxamide], for which the IC50 is under 100 nM.

For `O=C(CNC(=O)c1n[nH]cc1NC(=O)c1ccccn1)c1ccccc1` [Example 359, N-(3-(((2-oxo-2-phenylethyl)amino)carbonyl)-1H-pyrazol-4-yl)pyridine-2-carboxamide], the IC50 was under 100 nM.

For `COCCNC(=O)c1n[nH]cc1NC(=O)c1ccccn1` [Example 356, N-(3-(((2-methoxyethyl)amino)carbonyl)-1H-pyrazol-4-yl)pyridine-2-carboxamide], the IC50 is under 100 nM.

Take `O=C(Nc1c[nH]nc1C(=O)NCCSc1ccccc1)c1ccccn1` [Example 361, N-(3-(((2-(phenylthio)ethyl)amino)carbonyl)-1H-pyrazol-4-yl)pyridine-2-carboxamide]: the IC50 is under 100 nM.

On to `COc1ccc(C(=O)Nc2c[nH]nc2C(=O)NC(C)C)cc1` [compound 030], for which the IC50 was under 100 nM.

With `CC(=O)Nc1cccc(C(=O)Nc2c[nH]nc2C(=O)NC2CCCC2)c1` [compound 075], the IC50 is under 100 nM.

For `O=C(Nc1c[nH]nc1C(=O)NCCCc1ccccc1)c1ccccn1` [Example 342, N-(3-(((3-phenylpropyl)amino)carbonyl)-1H-pyrazol-4-yl)pyridine-2-carboxamide], the IC50 is under 100 nM.

`CCOCC(=O)Nc1c[nH]nc1C(=O)NC(C)C` [compound 021]: the IC50 was under 100 nM.

As for `O=C(Nc1c[nH]nc1C(=O)NCc1ccccc1)c1ccc(OC(F)(F)F)cc1` [Example 117, N-benzyl-4-{[4-(trifluoromethoxy)benzoyl]-amino}-1H-pyrazole-3-carboxamide], the IC50 came out at 157 nM.

Consider `N#CCCNC(=O)c1n[nH]cc1NC(=O)c1ccccn1` [Example 358, N-(3-(((2-cyanoethyl)amino)carbonyl)-1H-pyrazol-4-yl)pyridine-2-carboxamide], for which the IC50 was under 100 nM.

Consider `CC1(C)C2CC[C@@]1(CS(=O)(=O)Nc1c[nH]nc1C(=O)NC1CCCC1)C(=O)C2` [compound 240], for which the IC50 came out at 208 nM.

As for `CCC(CC)C(=O)Nc1c[nH]nc1C(=O)NC1CCCC1` [Example 368, N-cyclopentyl-4-((2-ethylbutanoyl)amino)-1H-pyrazole-3-carboxamide], the IC50 was under 100 nM.

On to `CC(C)NC(=O)c1n[nH]cc1NC(=O)/C=C/c1ccccc1` [compound 023], for which the IC50 was under 100 nM.

For `O=C(CC1CCCC1)Nc1c[nH]nc1C(=O)NCc1ccccc1` [compound 099], the IC50 is 102 nM.

For `CC(C)NC(=O)c1n[nH]cc1NC(=O)Cc1ccc(-c2ccccc2)cc1` [compound 022], the IC50 is 233 nM.

Turning to `CNC(=O)c1n[nH]cc1NC(=O)c1ccccn1` [Example 346, N-(3-((methylamino)carbonyl)-1H-pyrazol-4-yl)pyridine-2-carboxamide], the IC50 was under 100 nM.

As to `Cc1ccc(C(=O)Nc2c[nH]nc2C(=O)NCCC#N)cc1` [Example 418, N-(2-cyanoethyl)-4-(4-methylbenzoylamino)-1H-pyrazole-3-carboxamide], the IC50 is under 100 nM.

Turning to `O=C(Nc1c[nH]nc1C(=O)NC1Cc2ccccc2C1)c1ccccn1` [Example 339], the IC50 is under 100 nM.

With `CC(=O)Nc1cccc(C(=O)Nc2c[nH]nc2C(=O)NCCOC(C)(C)C)c1` [Example 381, 4-((3-(acetylamino)benzoyl)amino)-N-(2-tert-butoxyethyl)-1H-pyrazole-3-carboxamide], the IC50 is 140 nM.

On to `O=C(COc1ccccc1)Nc1c[nH]nc1C(=O)NCCc1ccccc1` [Example 123, 4-[(phenoxyacetyl)amino]-N-(2-phenylethyl)-1H-pyrazole-3-carboxamide], for which the IC50 was under 100 nM.

Turning to `O=C(Nc1c[nH]nc1C(=O)NCCc1ccccc1)c1cnccn1` [Example 141], the IC50 is under 100 nM.

For the molecule `O=C(Cc1ccc(-c2ccccc2)cc1)Nc1c[nH]nc1C(=O)NC1CCCC1` [compound 065], the IC50 stood at 234 nM.

`O=C(Nc1c[nH]nc1C(=O)NC1CCCC1)c1cccc2c1OCC2` [Example 362, N-cyclopentyl-4-((2,3-dihydro-1-benzofuran-7-ylcarbonyl)amino)-1H-pyrazole-3-carboxamide]: the IC50 was under 100 nM.

Regarding `COc1ncccc1C(=O)Nc1c[nH]nc1C(=O)NC1CCCC1` [Example 365, N-(3-((cyclopentylamino)carbonyl)-1H-pyrazol-4-yl)-2-methoxynicotinamide], the IC50 was under 100 nM.

`O=C(/C=C/c1ccccc1)Nc1c[nH]nc1C(=O)N1CCCC1` [compound 045]: the IC50 was 269 nM.

Regarding `O=C(CCc1ccccc1)Nc1c[nH]nc1C(=O)NC1CCCC1` [compound 067], the IC50 was under 100 nM.

On to `O=C(Nc1c[nH]nc1C(=O)NC1CCCC1)c1ccc(F)cc1F` [compound 073], for which the IC50 was under 100 nM.

For the molecule `CNC(=O)c1n[nH]cc1NC(=O)COc1ccccc1` [compound 004], the IC50 was under 100 nM.

On to `O=C(Nc1c[nH]nc1C(=O)NC1CCc2ccccc21)c1ccccn1` (centres unmarked) [Example 340], for which the IC50 is 300 nM.

For the molecule `O=C(CC1CCCC1)Nc1c[nH]nc1C(=O)NCCc1ccccc1` [Example 121, 4-[(cyclopentylacetyl)amino]-N-(2-phenylethyl)-1H-pyrazole-3-carboxamide], the IC50 was under 100 nM.

For `COc1ccc(C(=O)Nc2c[nH]nc2C(=O)NCc2ccco2)cc1` [compound 155], the IC50 was under 100 nM.

As for `CC(=O)Nc1cccc(C(=O)Nc2c[nH]nc2C(=O)NCCS(C)(=O)=O)c1` [Example 382, 4-((3-(acetylamino)benzoyl)amino)-N-(2-(methylsulfonyl)ethyl)-1H-pyrazole-3-carboxamide], the IC50 is under 100 nM.

On to `CC(=O)Nc1c[nH]nc1C(=O)NCCc1ccccc1` [Example 120, 4-acetylamino-N-(2-phenylethyl)-1H-pyrazole-3-carboxamide], for which the IC50 is under 100 nM.

Regarding `CC(C)NC(=O)c1n[nH]cc1NC(=O)CCc1ccccc1` [compound 024], the IC50 is under 100 nM.

As for `CC(=O)Nc1cccc(C(=O)Nc2c[nH]nc2C(=O)NCCOC(C)C)c1` [Example 371, 4-((3-(acetylamino)benzoyl)amino)-N-(2-isopropoxyethyl)-1H-pyrazole-3-carboxamide], the IC50 was under 100 nM.

For the molecule `O=C(Nc1c[nH]nc1C(=O)NCc1ccccc1)c1ccc(Oc2ccccc2)cc1` [Example 114, N-benzyl-4-[(4-phenoxybenzoyl)amino]-1H-pyrazole-3-carboxamide], the IC50 turned out to be 394 nM.

(Values after patent US20090156582A1, “Pyrazole Compound” (priority 2005, published 2009).)
